Source: the NIST ThermoML archive (doi:10.1021/je8003035)

Key:
[1] = xn = mol fraction of the nth substance listed; conditions: 1800 kPa, Liquid, Vibrating tube method
[2] = wn = mass fraction of the nth substance listed; conditions: 1800 kPa, Liquid, Falling or rolling sphere viscometry
[3] = molar heat capacity at constant pressure; wn = mass fraction of the nth substance listed; conditions: 1800 kPa, Liquid, Small sample (50 mg) DSC

O=[N+]([O-])[O-].[Li+] [lithium nitrate] + N
Conditions | mass density [kg/m3] | molar heat capacity at constant pressure [J/K/mol] | viscosity [mPa·s]
[1], 293.15 K, x2 = 0.3501 | 1188.8 | – | –
[1], 293.15 K, x2 = 0.3988 | 1134.2 | – | –
[1], 293.15 K, x2 = 0.4499 | 1078.1 | – | –
[1], 293.15 K, x2 = 0.5 | 1030 | – | –
[1], 293.15 K, x2 = 0.55 | 983.8 | – | –
[1], 293.15 K, x2 = 0.5999 | 939 | – | –
[1], 293.15 K, x2 = 0.6505 | 896.8 | – | –
[1], 303.15 K, x2 = 0.3501 | 1181.2 | – | –
[1], 303.15 K, x2 = 0.3988 | 1126.6 | – | –
[1], 303.15 K, x2 = 0.4499 | 1070.3 | – | –
[1], 303.15 K, x2 = 0.5 | 1022.1 | – | –
[1], 303.15 K, x2 = 0.55 | 975.4 | – | –
[1], 303.15 K, x2 = 0.5999 | 929.8 | – | –
[1], 303.15 K, x2 = 0.6505 | 886.9 | – | –
[1], 313.15 K, x2 = 0.3501 | 1173.8 | – | –
[1], 313.15 K, x2 = 0.3988 | 1119 | – | –
[1], 313.15 K, x2 = 0.4499 | 1062.6 | – | –
[1], 313.15 K, x2 = 0.5 | 1014.1 | – | –
[1], 313.15 K, x2 = 0.55 | 966.8 | – | –
[1], 313.15 K, x2 = 0.5999 | 920.6 | – | –
[1], 313.15 K, x2 = 0.6505 | 876.7 | – | –
[1], 323.15 K, x2 = 0.3501 | 1166.6 | – | –
[1], 323.15 K, x2 = 0.3988 | 1111.5 | – | –
[1], 323.15 K, x2 = 0.4499 | 1055.1 | – | –
[1], 323.15 K, x2 = 0.5 | 1006.1 | – | –
[1], 323.15 K, x2 = 0.55 | 958.1 | – | –
[1], 323.15 K, x2 = 0.5999 | 911.2 | – | –
[1], 323.15 K, x2 = 0.6505 | 866.6 | – | –
[1], 333.15 K, x2 = 0.3501 | 1159.7 | – | –
[1], 333.15 K, x2 = 0.3988 | 1104.1 | – | –
[1], 333.15 K, x2 = 0.4499 | 1047.5 | – | –
[1], 333.15 K, x2 = 0.5 | 998 | – | –
[1], 333.15 K, x2 = 0.55 | 949.4 | – | –
[1], 333.15 K, x2 = 0.5999 | 901.6 | – | –
[1], 343.15 K, x2 = 0.3501 | 1153.1 | – | –
[1], 343.15 K, x2 = 0.3988 | 1096.9 | – | –
[1], 343.15 K, x2 = 0.4499 | 1040 | – | –
[1], 343.15 K, x2 = 0.5 | 990.1 | – | –
[1], 343.15 K, x2 = 0.55 | 940.4 | – | –
[1], 353.15 K, x2 = 0.3501 | 1146.9 | – | –
[1], 353.15 K, x2 = 0.3988 | 1090.2 | – | –
[1], 353.15 K, x2 = 0.4499 | 1032.8 | – | –
[1], 353.15 K, x2 = 0.5 | 982.1 | – | –
[2], 293.2 K, w2 = 0.4 | – | – | 22.7
[2], 293.2 K, w2 = 0.4997 | – | – | 7.1
[2], 298.2 K, w2 = 0.4 | – | – | 18.7
[2], 298.2 K, w2 = 0.4997 | – | – | 6.1
[2], 303.2 K, w2 = 0.4 | – | – | 15.5
[2], 303.2 K, w2 = 0.4997 | – | – | 5.3
[2], 308.2 K, w2 = 0.4 | – | – | 13
[2], 308.2 K, w2 = 0.4997 | – | – | 4.7
[2], 313.2 K, w2 = 0.4 | – | – | 11
[2], 313.2 K, w2 = 0.4997 | – | – | 4.1
[2], 318.2 K, w2 = 0.4 | – | – | 9.3
[2], 318.2 K, w2 = 0.4997 | – | – | 3.6
[2], 323.2 K, w2 = 0.3 | – | – | 18.6
[2], 323.2 K, w2 = 0.4 | – | – | 8
[2], 323.2 K, w2 = 0.4997 | – | – | 3.3
[2], 328.1 K, w2 = 0.4997 | – | – | 2.9
[2], 328.2 K, w2 = 0.3 | – | – | 15.9
[2], 328.2 K, w2 = 0.4 | – | – | 6.9
[2], 333.1 K, w2 = 0.4997 | – | – | 2.6
[2], 333.2 K, w2 = 0.3 | – | – | 13.8
[2], 333.2 K, w2 = 0.4 | – | – | 6.1
[2], 338 K, w2 = 0.4997 | – | – | 2.4
[2], 338.1 K, w2 = 0.3 | – | – | 11.9
[2], 338.1 K, w2 = 0.4 | – | – | 5.4
[2], 343 K, w2 = 0.4997 | – | – | 2.2
[2], 343.1 K, w2 = 0.3 | – | – | 10.9
[2], 343.1 K, w2 = 0.4 | – | – | 4.8
[2], 348.1 K, w2 = 0.3 | – | – | 9
[2], 348.2 K, w2 = 0.4 | – | – | 4.3
[2], 353.1 K, w2 = 0.4 | – | – | 3.8
[2], 353.2 K, w2 = 0.3 | – | – | 7.9
[3], 312.65 K, w2 = 0.5 | – | 85.88 | –
[3], 312.67 K, w2 = 0.3501 | – | 84.48 | –
[3], 312.67 K, w2 = 0.4003 | – | 84.65 | –
[3], 312.67 K, w2 = 0.4499 | – | 85.21 | –
[3], 312.67 K, w2 = 0.5497 | – | 84.75 | –
[3], 322.56 K, w2 = 0.5 | – | 86.67 | –
[3], 322.57 K, w2 = 0.3501 | – | 85.61 | –
[3], 322.58 K, w2 = 0.4003 | – | 85.8 | –
[3], 322.58 K, w2 = 0.4499 | – | 86.2 | –
[3], 322.58 K, w2 = 0.5497 | – | 85.55 | –
[3], 332.46 K, w2 = 0.5 | – | 87.54 | –
[3], 332.48 K, w2 = 0.3501 | – | 86.65 | –
[3], 332.48 K, w2 = 0.4499 | – | 87.22 | –
[3], 332.48 K, w2 = 0.5497 | – | 86.09 | –
[3], 332.49 K, w2 = 0.4003 | – | 86.7 | –
[3], 342.37 K, w2 = 0.5 | – | 88.33 | –
[3], 342.38 K, w2 = 0.3501 | – | 87.52 | –
[3], 342.38 K, w2 = 0.5497 | – | 86.97 | –
[3], 342.39 K, w2 = 0.4003 | – | 87.51 | –
[3], 342.39 K, w2 = 0.4499 | – | 88.09 | –
[3], 352.29 K, w2 = 0.3501 | – | 88.22 | –
[3], 352.29 K, w2 = 0.4003 | – | 88.07 | –
[3], 352.31 K, w2 = 0.4499 | – | 88.59 | –
